{
  "source": "patent US20170087109A1",
  "about": "“COMPOSITIONS AND METHODS FOR TREATING BLACKHEADS” (Johnson & Johnson Consumer Inc., priority 2015, published 2017)",
  "test": "Blackhead dissolution test (extracted blackheads submerged in test material, graded by expert inspection)",
  "set-up": "species or system human",
  "settings": "blackhead submerged in approximately 100 microliters test material for 24 hours at room temperature, no agitation; 1 = not dissolved, 7 = completely dissolved",
  "procedure": "A series of compounds and compositions were tested for their ability to dissolve blackheads as follows.\nThe blackheads were extracted from human volunteers using a comedone extracator. They were placed in a 24 or 96 well plate and submerged into approximately 100 microliters of each test material listed in Table 1 for 24 hours at room temperature ([…]). Gray color cards (GretagMacbeth ColorChecker™ Color Rendition Chart-Neutral 8 (0.23) CC20) were used underneath and measurements were made using a WILD M10 microscope at 40x, no agitation. The plates were covered with parafilm to avoid evaporation, and each test solution was removed at 24 hours and allowed to dry overnight. The amount of blackhead dissolved was graded by expert inspection on a scale from 1-7, 1 being not dissolved, and 7 being completely dissolved as shown in Table 1.",
  "data": [
    {"smiles": "[Na+].[OH-]", "note": "[0.1M NaOH, NaOH, reference compound]", "values": [
      {"measurement": "Outcome at 24 hours (amount of blackhead dissolved, grade on scale 1-7)", "result": "4.33 ± 0.58"}
    ]},
    {"smiles": "CCCCCCCCCCCCCC(=O)O", "note": "[10% Myristic acid in KOH, Myristic acid]", "values": [
      {"measurement": "Outcome at 24 hours (amount of blackhead dissolved, grade on scale 1-7)", "result": "6.00 ± 0.01"}
    ]},
    {"smiles": "CCCCCCCC/C=C\\CCCCCCCC(=O)O", "note": "[10% Oleic acid in KOH, Oleic acid]", "values": [
      {"measurement": "Outcome at 24 hours (amount of blackhead dissolved, grade on scale 1-7)", "result": "7.00 ± 0.01"}
    ]}
  ]
}
